Assay results from patent EP4238971A1, “SUBSTITUTED ISOXAZOLINE DERIVATIVES” (BASF SE, priority 2022, dated 2023).

What was measured:
Type in all cases: in vivo
Spodoptera eridania = experiment: Southern armyworm (Spodoptera eridania), 2nd instar larvae, sprayed lima bean plants; settings: for mortality in comparison with untreated controls: 300ppm, 2nd instar larvae, assessed 4 days after treatment
Experimental: B.7. Southern armyworm (Spodoptera eridania), 2nd instar larvae
The active compounds were formulated by a Tecan liquid handler in 100% cyclohexanone as a 10'000 ppm solution supplied in tubes. The 10'000 ppm solution was serially diluted in 100% cyclohexanone to make interim solutions. These served as stock solutions for which final dilutions were made by the Tecan in 50% acetone:50% water (v/v) into 10 or 20ml glass vials. A nonionic surfactant (Kinetic®) was included in the solution at a volume of 0.01% (v/v). The vials were then inserted into an automated electrostatic sprayer equipped with an atomizing nozzle for application to plants/insects. Lima bean plants (variety Sieva) were grown 2 plants to a pot and selected for treatment at the 1st true leaf stage. Test solutions were sprayed onto the foliage by an automated electrostatic plant sprayer equipped with an atomizing spray nozzle. The plants were dried in the sprayer fume hood and then removed from the sprayer. Each pot was placed into perforated plastic bags with a zip closure. Ten to 11 armyworm larvae were placed into the bag and the bags zipped closed. Test plants were maintained in a growth room at about 25°C and about 20-40% relative humidity for 4 days, avoiding direct exposure to fluorescent light (14:10 light:dark photo-period) to prevent trapping of heat inside the bags. Mortality and reduced feeding were assessed 4 days after treatment, compared to untreated control plants.

Plutella xylostella = experiment: Diamond back moth (Plutella xylostella), cabbage leaf disc dip test; settings: for mortality in comparison with untreated controls: 300ppm, 3rd instar larvae, mortality recorded 72 hours after treatment
Experimental: B.5. Diamond back moth (Plutella xylostella)
The active compound was dissolved at the desired concentration in a mixture of 1:1 (vol:vol) distilled water: acetone. Surfactant (Kinetic) was added at a rate of 0.01% (vol/vol). The test solution was prepared at the day of use. Cabbage leaf discs (60mm in diameter) were dipped in test solution and air-dried. Treated leaves were placed in petri dishes lined with moistened filter paper and inoculated with ten 3rd instar larvae. Mortality was recorded 72 hours after treatment. Feeding damages were also recorded using a scale of 0-100%.

Bemisia argentifolii = experiment: Silverleaf whitefly (Bemisia argentifolii) adults, sprayed cotton plants; settings: for mortality in comparison with untreated controls: 300 ppm, adults, assessed 3 days after treatment
Experimental: B.8. Silverleaf whitefly (Bemisia argentifolii) (adults)
The active compounds were formulated by a Tecan liquid handler in 100% cyclohexanone as a 10,000-ppm solution supplied in tubes. The 10,000-ppm solution was serially diluted in 100% cyclohexanone to make interim solutions. These served as stock solutions for which final dilutions were made by the Tecan in 50% acetone:50% water (v/v) into 5 or 10ml glass vials. A nonionic surfactant (Kinetic®) was included in the solution at a volume of 0.01% (v/v). The vials were then inserted into an automated electrostatic sprayer equipped with an atomizing nozzle for application to plants/insects. Cotton plants at the cotyledon stage (one plant per pot) were sprayed by an automated electrostatic plant sprayer equipped with an atomizing spray nozzle. The plants were dried in the sprayer fume hood and then removed from the sprayer. Each pot was placed into a plastic cup and about 10 to 12 whitefly adults (approximately 3-5 days old) were introduced. The insects were collected using an aspirator and a nontoxic Tygon® tubing connected to a barrier pipette tip. The tip, containing the collected insects, was then gently inserted into the soil containing the treated plant, allowing insects to crawl out of the tip to reach the foliage for feeding. Cups were covered with a reusable screened lid. Test plants were maintained in a growth room at about 25°C and about 20-40% relative humidity for 3 days, avoiding direct exposure to fluorescent light (14:10 light:dark photoperiod) to prevent trapping of heat inside the cup. Mortality was assessed 3 days after treatment, compared to untreated control plants.

Dichromothrips corbetti = experiment: Orchid thrips (Dichromothrips corbetti), floral-immersion technique; settings: for mortality in comparison with untreated controls: 300ppm, adult thrips, mortality recorded 72 hours after treatment
Experimental: B.6. Orchid thrips (Dichromothrips corbetti)
Dichromothrips corbetti adults used for bioassay were obtained from a colony maintained continuously under laboratory conditions. For testing purposes, the test compound was diluted in a 1:1 mixture of acetone:water (vol:vol), plus Kinetic at a rate of 0.01% v/v.
Thrips potency of each compound was evaluated by using a floral-immersion technique. Each orchid petal was dipped into treatment solution and allowed to dry in Petri dishes. Treated petals were placed into individual re-sealable plastic along with about 20 adult thrips. All test arenas were held under dark condition and a temperature of about 28°C for duration of the assay. The percent mortality was recorded 72 hours after treatment.

Heliothis virescens = experiment: Tobacco budworm (Heliothis virescens) control, insect diet in 96-well microtiter plates; settings: for mortality in comparison with untreated controls: 2500ppm, egg and larval mortality visually assessed after 5 days
Experimental: (§1) If not otherwise specified, the test solutions were prepared as follows: The active compound was dissolved at the desired concentration in a mixture of 1:1 (vol:vol) distilled water:acetone. The test solution was prepared at the day of use.
(§2) Test solutions were prepared in general at a concentration of 2500ppm (wt/vol).
B.3. Tobacco budworm (Heliothis virescens)
For evaluating control of Tobacco Budworm, the test unit consisted of 96-well-microtiter plates containing an insect diet and 15-25 H. virescens eggs. The compounds were formulated using a solution containing 75% v/v water and 25% v/v DMSO. Different concentrations of formulated compounds were sprayed onto the insect diet at 10µl, using a custom-built micro atomizer, at two replications. After application, microtiter plates were incubated at about 28 ± 1°C and about 80 ± 5 % relative humidity for 5 days. Egg and larval mortality was then visually assessed.

Myzus persicae = experiment: Green peach aphid (Myzus persicae), mixed life stages, systemic test via artificial diet under membrane; settings: for mortality in comparison with untreated controls: 2500ppm, aphid mortality visually assessed after 3 days
Experimental: as §1, §2
B.2. Green peach aphid (Myzus persicae) (mixed life stages)
For evaluating control of Green Peach Aphid through systemic means the test unit consisted of 96-well-microtiter plates containing liquid artificial diet under an artificial membrane. The compounds were formulated using a solution containing 75% v/v water and 25% v/v DMSO. Different concentrations of formulated compounds were pipetted into the aphid diet, using a custom-built pipette, at two replications. After application, 5 - 8 adult aphids were placed on the artificial membrane inside the microtiter plate wells. The aphids were then allowed to suck on the treated aphid diet and incubated at about 23 ± 1°C and about 50 ± 5 % relative humidity for 3 days. Aphid mortality and fecundity was then visually assessed.

Aedes aegypti = experiment: whole plant or invertebrate; settings: larval mortality visually assessed after 2 days; for mortality in comparison with untreated controls: 2500ppm
Experimental: as §1, §2
B.4. Yellow fever mosquito (Aedes aegypti)
For evaluating control of Yellow Fever Mosquito, the test unit consisted of 96-well-microtiter plates containing 200µl of tap water per well and 5-15 freshly hatched A. aegypti larvae. The active compounds were formulated using a solution containing 75% (v/v) water and 25% (v/v) DMSO. Different concentrations of formulated compounds or mixtures were sprayed onto the insect diet at 2.5µl, using a custom-built micro atomizer, at two replications.
After application, microtiter plates were incubated at 28 ± 1°C, 80 ± 5 % RH for 2 days. Larval mortality was then visually assessed.

Anthonomus grandis = experiment: Boll weevil (Anthonomus grandis) control, insect diet in 96-well microtiter plates; settings: for mortality in comparison with untreated controls: 2500ppm, egg and larval mortality visually assessed after 5 days
Experimental: as §1, §2
B.1. Boll weevil (Anthonomus grandis)
For evaluating control of boll weevil, the test unit consisted of 96-well-microtiter plates containing an insect diet and 5-10 A. grandis eggs.
The compounds were formulated using a solution containing 75% v/v water and 25% v/v DMSO. Different concentrations of formulated compounds were sprayed onto the insect diet at 5µl, using a custom-built micro atomizer, at two replications.
After application, microtiter plates were incubated at about 25 ± 1°C and about 75 ± 5 % relative humidity for 5 days. Egg and larval mortality were then visually assessed.

| SMILES | mortality in comparison with untreated controls (Spodoptera eridania) | mortality in comparison with untreated controls (Plutella xylostella) | mortality in comparison with untreated controls (Bemisia argentifolii) | mortality in comparison with untreated controls (Dichromothrips corbetti) | mortality at 2500 ppm (Heliothis virescens; Heliothis virescens, 120 h, read-out: mortality in comparison with untreated controls) [%] | mortality at 2500 ppm (Myzus persicae; Myzus persicae, 72 h, read-out: mortality in comparison with untreated controls) [%] | mortality at 2500 ppm (Aedes aegypti; Aedes aegypti, 48 h, read-out: mortality in comparison with untreated controls) [%] | mortality at 300 ppm (Spodoptera eridania; Spodoptera eridania, 96 h, read-out: mortality in comparison with untreated controls) [%] | mortality at 300 ppm (Plutella xylostella; Plutella xylostella, foliar, 72 h, read-out: mortality in comparison with untreated controls) [%] | mortality at 300 ppm (Bemisia argentifolii; Bemisia argentifolii, 72 h, read-out: mortality in comparison with untreated controls) [%] | mortality at 300 ppm (Dichromothrips corbetti; Dichromothrips corbetti, 72 h, read-out: mortality in comparison with untreated controls) [%] | mortality at 2500 ppm (Anthonomus grandis; Anthonomus grandis, 120 h, read-out: mortality in comparison with untreated controls) [%] | mortality in comparison with untreated controls (Heliothis virescens) | mortality in comparison with untreated controls (Aedes aegypti) | mortality in comparison with untreated controls (Myzus persicae) | mortality in comparison with untreated controls (Anthonomus grandis) |
| --- | --- | --- | --- | --- | --- | --- | --- | --- | --- | --- | --- | --- | --- | --- | --- | --- |
| N#Cc1ccc(NC2=NOC(c3ccc(F)c(C(F)(F)F)c3)(C(F)(F)F)C2)cc1-n1cncn1 (stereo not drawn) [I-8] | at least 75% | at least 75% | at least 75% | at least 75% | – | – | – | – | – | – | – | – | – | – | – | – |
| Fc1c(Cl)cc(C2(C(F)(F)F)CC(Nc3ccc(Cl)c(-n4cc(C(F)(F)F)cn4)c3)=NO2)cc1Cl (stereo not drawn) [I-14, N-[4-chloro-3-[4-(trifluoromethyl)pyrazol-1-yl]phenyl]-5-(3,5-dichloro-4-fluoro-phenyl)-5-(trifluoromethyl)-4H-isoxazol-3-amine] | – | – | – | – | ≥ 75 | ≥ 75 | ≥ 75 | ≥ 75 | ≥ 75 | ≥ 75 | ≥ 75 | ≥ 75 | – | – | – | – |
| CCOC(=O)N(C1=NOC(c2cc(Cl)c(F)c(Cl)c2)(C(F)(F)F)C1)c1ccc(Cl)c(-n2cncn2)c1 (stereo not drawn) [I-25] | at least 75% | at least 75% | at least 75% | at least 75% | – | – | – | – | – | – | – | – | at least 75% | at least 75% | – | – |
| COCN(C1=NOC(c2cc(Cl)c(F)c(Cl)c2)(C(F)(F)F)C1)c1ccc(Cl)c(-n2cncn2)c1 (stereo not drawn) [I-21] | at least 75% | at least 75% | at least 75% | at least 75% | – | – | – | – | – | – | – | – | at least 75% | at least 75% | at least 75% | at least 75% |
| Fc1c(Cl)cc(C2(C(F)(F)F)CC(Nc3ccc(Cl)c(-n4ccc(C(F)(F)F)n4)c3)=NO2)cc1Cl (stereo not drawn) [I-15] | at least 75% | – | at least 75% | at least 75% | – | – | – | – | – | – | – | – | at least 75% | at least 75% | – | – |
| N#Cc1ccc(NC2=NOC(c3cccc(C(F)(F)F)c3)(C(F)(F)F)C2)cc1-n1cncn1 (stereo not drawn) [I-5] | at least 75% | at least 75% | – | at least 75% | – | – | – | – | – | – | – | – | at least 75% | at least 75% | at least 75% | at least 75% |
| CN(C1=NOC(c2cc(Cl)cc(Cl)c2)(C(F)(F)F)C1)c1ccc(C#N)c(-n2cncn2)c1 (stereo not drawn) [I-7] | at least 75% | at least 75% | – | at least 75% | – | – | – | – | – | – | – | – | at least 75% | at least 75% | at least 75% | at least 75% |
| C#CCN(C1=NOC(c2ccc(F)c(Cl)c2)(C(F)(F)F)C1)c1ccc(C#N)c(-n2cncn2)c1 (stereo not drawn) [I-12] | at least 75% | at least 75% | – | at least 75% | – | – | – | – | – | – | – | – | at least 75% | at least 75% | at least 75% | at least 75% |
| CN(C1=NOC(c2ccc(F)c(Cl)c2)(C(F)(F)F)C1)c1ccc(C#N)c(-n2cncn2)c1 (stereo not drawn) [I-9] | at least 75% | at least 75% | – | at least 75% | – | – | – | – | – | – | – | – | at least 75% | at least 75% | at least 75% | at least 75% |
| Fc1c(Cl)cc(C2(C(F)(F)F)CC(Nc3ccc(Cl)c(-n4cncn4)c3)=NO2)cc1Cl (stereo not drawn) [I-13] | at least 75% | at least 75% | at least 75% | – | – | – | – | – | – | – | – | – | at least 75% | at least 75% | at least 75% | at least 75% |
